Assays:
DNA = experiment: Pentalysine DNA binding with crosslinker DTBP and reducing agent TCEP (agarose gel)
Protocol: Pentalysine was added to DNA for 15 minutes. Crosslinker DTBP was then added to the solution mixture for over 60 minutes. TCEP was added and an agarose gel was run after 30 minutes. […] Thus, crosslinking with DTBP increased the affinity of pentalysine to DNA.

Protocol for BHK-21 cells: BHK-21 cells were plated in 24 well plates at a cell density of 60,000 cells/well 24 hours before transfection. […] Media solution containing the DNA/polymer complexes was added to cultured cells and replaced with fresh media after 24 hours of incubation at 37° C. The cells were lysed 48 hours after transfection. […] Cell lysate was also used to determine cell viability by the Lowry protein assay.

binding to DNA (DNA)	Substance	toxicity (cell viability, Lowry protein assay) (BHK-21 cells)
not strong enough to bind to the DNA	Pentalysine	–
–	β-Cyclodextrin(cystamine)-DMS copolymer [copolymer 15]	No toxicity was observed

Reference: patent publication US7375096B1, “Method of preparing a supramolecular complex containing a therapeutic agent and a multi-dimensional polymer network” (California Institute of Technology, priority 1998, dated 2008)
